The nature of assay [1]: Inhibitory activity towards group 2 metabotropic glutamate receptor by displacement of ACPD-sensitive [3H]- glutamate in rat forebrain membrane. Type of assay: cell membranes.
Assay [2] deals with Metabotropic glutamate receptor 2 (Homo sapiens, UniProt Q14416). The assay can be described thus: Tested for […] in non-neuronal cells (RGT) expressing human Metabotropic glutamate receptor 2 by measuring ACPD (3 uM) induced inhibition of forskolin (15 uM)-stimulated cAMP formation. Type of assay: functional, cell-based.
Chain of Metabotropic glutamate receptor 2 (Q14416 whole entry): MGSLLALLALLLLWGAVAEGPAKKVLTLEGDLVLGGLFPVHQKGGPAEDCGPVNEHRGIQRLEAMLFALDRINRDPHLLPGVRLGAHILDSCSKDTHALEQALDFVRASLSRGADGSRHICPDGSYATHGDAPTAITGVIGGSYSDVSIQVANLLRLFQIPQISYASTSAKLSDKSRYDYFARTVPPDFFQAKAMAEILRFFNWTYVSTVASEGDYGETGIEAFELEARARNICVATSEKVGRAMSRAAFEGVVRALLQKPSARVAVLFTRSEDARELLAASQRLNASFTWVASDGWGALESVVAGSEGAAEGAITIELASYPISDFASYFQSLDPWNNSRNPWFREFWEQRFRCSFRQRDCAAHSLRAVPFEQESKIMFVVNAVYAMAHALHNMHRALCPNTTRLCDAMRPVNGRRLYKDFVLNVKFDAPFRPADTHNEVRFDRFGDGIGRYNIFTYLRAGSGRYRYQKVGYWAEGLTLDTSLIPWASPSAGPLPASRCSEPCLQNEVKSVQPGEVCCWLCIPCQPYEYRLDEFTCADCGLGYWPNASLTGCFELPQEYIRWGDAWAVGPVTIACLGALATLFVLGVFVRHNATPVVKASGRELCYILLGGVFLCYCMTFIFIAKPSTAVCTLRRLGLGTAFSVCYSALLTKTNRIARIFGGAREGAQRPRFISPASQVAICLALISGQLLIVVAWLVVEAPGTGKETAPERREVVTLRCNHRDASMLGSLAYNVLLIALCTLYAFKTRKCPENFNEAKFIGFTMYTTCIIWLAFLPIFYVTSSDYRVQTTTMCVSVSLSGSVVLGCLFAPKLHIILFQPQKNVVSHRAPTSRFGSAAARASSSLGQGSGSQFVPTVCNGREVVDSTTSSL
The target in assay [3] is Metabotropic glutamate receptor 3 (Homo sapiens, UniProt Q14832). The assay can be described thus: Tested for […] in non-neuronal cells (RGT) expressing human Metabotropic glutamate receptor 3 by measuring ACPD (3 uM) induced inhibition of forskolin (15 uM)-stimulated cAMP formation. Type of assay: functional, cell-based. (cAMP levels reflect the balance of adenylyl cyclase and phosphodiesterase activity.)
Chain of Metabotropic glutamate receptor 3 (Q14832 whole entry): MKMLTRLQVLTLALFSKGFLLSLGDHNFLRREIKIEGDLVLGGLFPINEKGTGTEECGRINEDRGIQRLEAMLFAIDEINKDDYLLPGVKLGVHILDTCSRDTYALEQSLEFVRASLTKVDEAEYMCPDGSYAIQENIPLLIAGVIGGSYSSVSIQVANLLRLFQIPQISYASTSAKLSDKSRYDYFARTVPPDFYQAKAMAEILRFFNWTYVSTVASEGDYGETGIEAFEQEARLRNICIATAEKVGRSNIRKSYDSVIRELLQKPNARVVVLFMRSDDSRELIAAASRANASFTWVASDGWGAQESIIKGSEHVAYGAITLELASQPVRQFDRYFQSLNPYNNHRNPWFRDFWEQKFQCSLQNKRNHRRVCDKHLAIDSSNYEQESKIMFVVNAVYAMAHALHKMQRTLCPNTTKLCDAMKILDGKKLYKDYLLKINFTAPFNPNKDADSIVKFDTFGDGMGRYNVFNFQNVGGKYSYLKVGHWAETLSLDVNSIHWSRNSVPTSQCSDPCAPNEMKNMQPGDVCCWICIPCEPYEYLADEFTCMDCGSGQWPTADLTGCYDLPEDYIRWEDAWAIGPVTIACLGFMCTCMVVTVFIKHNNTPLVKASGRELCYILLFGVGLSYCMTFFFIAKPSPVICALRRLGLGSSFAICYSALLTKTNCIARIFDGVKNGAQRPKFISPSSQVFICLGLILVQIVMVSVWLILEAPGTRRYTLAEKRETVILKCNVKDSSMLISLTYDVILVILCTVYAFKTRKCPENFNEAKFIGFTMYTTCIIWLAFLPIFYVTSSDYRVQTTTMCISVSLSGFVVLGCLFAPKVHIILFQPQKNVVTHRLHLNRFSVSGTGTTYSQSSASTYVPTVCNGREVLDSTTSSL

Assay [4] addresses Metabotropic glutamate receptor 8 (Homo sapiens, UniProt O00222). As to the kind of experiment: Tested for […] in non-neuronal cells (RGT) expressing human Metabotropic glutamate receptor 8 by measuring L-AP4 (0.3 uM of forskolin) (15 uM)-stimulated cAMP formation. Type of assay: functional, cell-based.
Assay [5] deals with Glutamate receptor ionotropic, kainate 3 (Rattus norvegicus, UniProt P42264). As to the kind of experiment: Binding affinity against Ionotropic glutamate receptor using ACPD sensitive [3H]- glutamate displacement from rat forebrain preparations.
Chain of Glutamate receptor ionotropic, kainate 3 (P42264 whole entry): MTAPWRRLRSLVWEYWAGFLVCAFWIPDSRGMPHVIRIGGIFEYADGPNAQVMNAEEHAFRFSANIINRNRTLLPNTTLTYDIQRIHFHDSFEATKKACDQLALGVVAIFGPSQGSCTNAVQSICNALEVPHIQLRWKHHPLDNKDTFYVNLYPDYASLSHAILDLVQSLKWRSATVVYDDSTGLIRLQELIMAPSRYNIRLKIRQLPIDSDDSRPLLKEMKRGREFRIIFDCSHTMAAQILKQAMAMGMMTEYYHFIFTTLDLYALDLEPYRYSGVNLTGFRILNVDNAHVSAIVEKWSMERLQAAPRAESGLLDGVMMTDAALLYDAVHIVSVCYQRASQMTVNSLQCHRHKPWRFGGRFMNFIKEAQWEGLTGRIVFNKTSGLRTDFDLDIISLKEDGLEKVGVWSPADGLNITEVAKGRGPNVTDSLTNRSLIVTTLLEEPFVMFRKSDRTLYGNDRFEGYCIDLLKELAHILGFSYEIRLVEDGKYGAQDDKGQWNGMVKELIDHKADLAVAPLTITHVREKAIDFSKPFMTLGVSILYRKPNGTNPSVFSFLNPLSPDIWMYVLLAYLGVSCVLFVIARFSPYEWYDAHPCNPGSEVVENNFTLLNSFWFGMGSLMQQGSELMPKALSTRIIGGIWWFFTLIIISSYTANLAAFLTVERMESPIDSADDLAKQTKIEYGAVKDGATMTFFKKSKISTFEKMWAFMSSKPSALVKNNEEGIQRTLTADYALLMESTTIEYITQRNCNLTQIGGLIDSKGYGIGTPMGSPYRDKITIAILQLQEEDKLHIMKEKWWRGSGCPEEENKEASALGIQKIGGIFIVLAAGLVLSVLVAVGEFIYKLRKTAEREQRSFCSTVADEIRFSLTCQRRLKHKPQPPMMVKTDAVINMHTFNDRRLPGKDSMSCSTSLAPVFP
The target of assay [6] is Glutamate receptor ionotropic, kainate. As to the kind of experiment: Binding affinity against Ionotropic glutamate receptor using [3H]-Kainate displacement from rat forebrain preparations.
The target in assay [7] is Metabotropic glutamate receptor 1 (Homo sapiens, UniProt Q13255). As to the kind of experiment: Tested for […] in non-neuronal cells (RGT) expressing human Metabotropic glutamate receptor 1 by measuring ACPD (100 uM)-stimulated phosphoinositide hydrolysis. Type of assay: functional, cell-based.
The target of assay [8] is Metabotropic glutamate receptor 4 (Homo sapiens, UniProt Q14833). As to the kind of experiment: Tested for […] in non-neuronal cells (RGT) expressing human Metabotropic glutamate receptor 4 by measuring L-AP4 (3 uM) induced inhibition of forskolin (15 uM)-stimulated cAMP formation. Type of assay: functional, cell-based.
Chain of Metabotropic glutamate receptor 4 (Q14833 whole entry): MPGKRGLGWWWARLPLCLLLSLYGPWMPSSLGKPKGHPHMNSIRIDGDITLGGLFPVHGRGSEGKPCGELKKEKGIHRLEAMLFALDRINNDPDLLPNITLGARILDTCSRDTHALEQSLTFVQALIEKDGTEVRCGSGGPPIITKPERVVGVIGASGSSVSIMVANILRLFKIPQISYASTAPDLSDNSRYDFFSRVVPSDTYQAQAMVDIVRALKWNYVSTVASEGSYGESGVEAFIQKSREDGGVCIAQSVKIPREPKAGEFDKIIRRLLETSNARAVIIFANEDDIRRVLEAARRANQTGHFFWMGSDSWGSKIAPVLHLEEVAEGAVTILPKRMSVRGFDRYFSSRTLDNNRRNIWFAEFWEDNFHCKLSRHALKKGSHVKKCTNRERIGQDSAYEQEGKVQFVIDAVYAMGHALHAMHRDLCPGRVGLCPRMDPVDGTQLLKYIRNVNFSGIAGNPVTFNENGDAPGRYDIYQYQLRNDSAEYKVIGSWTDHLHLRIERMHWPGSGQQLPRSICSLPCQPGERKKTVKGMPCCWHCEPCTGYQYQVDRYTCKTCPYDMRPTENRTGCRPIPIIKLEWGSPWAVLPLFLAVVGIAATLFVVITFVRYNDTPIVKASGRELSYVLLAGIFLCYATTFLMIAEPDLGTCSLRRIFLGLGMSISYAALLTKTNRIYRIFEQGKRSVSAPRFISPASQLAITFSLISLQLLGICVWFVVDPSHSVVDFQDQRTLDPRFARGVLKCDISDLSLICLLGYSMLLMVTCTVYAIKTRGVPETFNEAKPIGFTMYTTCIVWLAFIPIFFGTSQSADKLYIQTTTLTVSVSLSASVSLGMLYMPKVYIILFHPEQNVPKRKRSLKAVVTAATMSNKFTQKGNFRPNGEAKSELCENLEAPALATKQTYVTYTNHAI
For assay [9], the target named is Metabotropic glutamate receptor 5 (Homo sapiens, UniProt P41594). As to the kind of experiment: Tested for […] in non-neuronal cells (RGT) expressing human Metabotropic glutamate receptor 5 by measuring ACPD (100 uM)-stimulated phosphoinositide hydrolysis. Type of assay: functional, cell-based.
Chain of Metabotropic glutamate receptor 5 (P41594 whole entry): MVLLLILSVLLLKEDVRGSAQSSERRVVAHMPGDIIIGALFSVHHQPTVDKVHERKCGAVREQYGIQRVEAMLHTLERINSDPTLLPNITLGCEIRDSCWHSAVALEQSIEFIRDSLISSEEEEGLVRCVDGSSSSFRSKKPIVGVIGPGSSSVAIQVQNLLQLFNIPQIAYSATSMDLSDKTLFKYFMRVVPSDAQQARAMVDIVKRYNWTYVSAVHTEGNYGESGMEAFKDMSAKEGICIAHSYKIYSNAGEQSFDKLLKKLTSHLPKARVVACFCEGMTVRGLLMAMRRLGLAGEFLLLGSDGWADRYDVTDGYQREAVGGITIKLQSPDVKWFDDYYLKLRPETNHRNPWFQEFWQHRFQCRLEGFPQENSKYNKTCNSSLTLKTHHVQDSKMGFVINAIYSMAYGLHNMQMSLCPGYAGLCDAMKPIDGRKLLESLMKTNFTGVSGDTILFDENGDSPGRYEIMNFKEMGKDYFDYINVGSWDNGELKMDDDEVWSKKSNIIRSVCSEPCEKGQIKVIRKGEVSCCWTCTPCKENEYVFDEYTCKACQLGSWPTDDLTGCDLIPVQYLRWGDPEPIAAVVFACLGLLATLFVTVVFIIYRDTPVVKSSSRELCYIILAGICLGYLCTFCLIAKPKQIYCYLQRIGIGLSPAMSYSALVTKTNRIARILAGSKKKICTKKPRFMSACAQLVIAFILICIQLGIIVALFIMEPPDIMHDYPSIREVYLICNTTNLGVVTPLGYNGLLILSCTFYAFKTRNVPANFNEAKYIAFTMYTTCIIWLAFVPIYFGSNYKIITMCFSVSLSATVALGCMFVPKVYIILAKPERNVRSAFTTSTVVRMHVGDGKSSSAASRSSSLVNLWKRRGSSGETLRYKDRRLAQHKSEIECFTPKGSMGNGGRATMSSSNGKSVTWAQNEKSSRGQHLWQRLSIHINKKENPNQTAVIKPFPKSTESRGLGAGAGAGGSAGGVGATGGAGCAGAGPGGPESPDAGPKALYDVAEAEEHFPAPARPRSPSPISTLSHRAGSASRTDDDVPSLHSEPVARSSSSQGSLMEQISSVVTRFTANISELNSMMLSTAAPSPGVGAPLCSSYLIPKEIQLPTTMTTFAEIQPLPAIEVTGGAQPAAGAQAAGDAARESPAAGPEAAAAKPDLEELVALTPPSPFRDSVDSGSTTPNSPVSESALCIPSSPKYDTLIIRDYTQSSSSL
Assay [10] addresses Metabotropic glutamate receptor 7 (Homo sapiens, UniProt Q14831). The assay can be described thus: Tested for […] in non-neuronal cells (RGT) expressing human mGlu7a receptor by measuring L-AP4 (1000 uM of forskolin (15 uM)-stimulated cAMP formation. Type of assay: functional, cell-based.
For assay [11], the target named is Glutamate receptor ionotropic, AMPA (Rattus norvegicus, UniProt P19490+P19491+P19492+P19493). As to the kind of experiment: Binding affinity against Ionotropic glutamate receptor using [3H]-AMPA displacement from rat forebrain preparations.

Molecules are shown by their SMILES.

With `N[C@@H](C[C@@H](CCc1ccccc1)C(=O)O)C(=O)O` (single isomer, unassigned), the IC50 in assay [1] came to 14.5 µM.
The same measure, in the same setting: the result for `N[C@@H](C[C@H](CC1CCC(c2ccccc2)(c2ccccc2)CC1)C(=O)O)C(=O)O` reads 1.4 µM.
Take `N[C@@H](C[C@H](CC(c1ccccc1)c1ccccc1)C(=O)O)C(=O)O`: the IC50 in [2] is 18 µM; in assay [3] it was 6.1 µM; in assay [4], greater than 300 µM; in assay [5], 0.38 µM; in [6], greater than 100 µM; in assay [7], greater than 300 µM. Also, the concentration for half-maximal inhibition (IC50) in [8] was greater than 300 µM; in assay [9] it was greater than 300 µM; in assay [10], greater than 300 µM; in assay [11], greater than 100 µM.
In turn, `N[C@@H](C[C@H](Cc1ccc(C(F)(F)F)cc1)C(=O)O)C(=O)O` registered an IC50 in assay [1] of 3.16 µM.
On the same count and under the same terms, the result for `N[C@@H](C[C@H](CCCCc1ccccc1)C(=O)O)C(=O)O` reads 4.69 µM; that for `Cc1ccc(C[C@H](C[C@H](N)C(=O)O)C(=O)O)cc1` (single isomer, unassigned), 7.85 µM.
`N[C@@H](C[C@@H](CCCc1ccccc1)C(=O)O)C(=O)O`: in assay [1], the IC50 amounted to 21.1 µM.
With `N[C@@H](C[C@H](CCC(c1ccccc1)c1ccccc1)C(=O)O)C(=O)O`, the IC50 came to 1.16 µM in assay [5], 39.3 µM in assay [6] and 14.5 µM in [11].
Take `N[C@@H](C[C@H](CCCCC(c1ccccc1)c1ccccc1)C(=O)O)C(=O)O`: the IC50 in [1] turned out to be 3.4 µM.
Consider `N[C@@H](C[C@H](CCc1ccccc1)C(=O)O)C(=O)O`, for which the concentration for half-maximal inhibition (IC50) in assay [1] came to 4.65 µM.
In the case of `N[C@@H](C[C@H](Cc1ccccc1)C(=O)O)C(=O)O`, the IC50 in assay [1] is 8.99 µM.
The compound `COc1cccc(C[C@@H](C[C@H](N)C(=O)O)C(=O)O)c1` gave an IC50 in assay [1] of 9.28 µM.
The compound `N[C@@H](C[C@H](CCCCCc1ccccc1)C(=O)O)C(=O)O` returned an IC50 in [1] of 2.49 µM.
In the case of `N[C@@H](C[C@H](CCCc1ccccc1)C(=O)O)C(=O)O`, the IC50 in [5] was determined as 1.84 µM; in assay [6], 9.2 µM; in assay [1] it was 1.84 µM; in assay [11], 34 µM.
Take `N[C@@H](C[C@@H](CCCCc1ccccc1)C(=O)O)C(=O)O`: the IC50 in assay [1] is greater than 100 µM.
Regarding `N[C@@H](C[C@H](CCCC(c1ccccc1)c1ccccc1)C(=O)O)C(=O)O`, the IC50 was 50 µM in assay [2]; 30 µM in assay [3]; greater than 300 µM in assay [4]; greater than 300 µM in [7]; greater than 300 µM in assay [8]; greater than 300 µM in [9]. Also, the IC50 in assay [10] is greater than 300 µM; in assay [11], greater than 100 µM.
In assay [1], `Cc1ccc(C[C@@H](C[C@H](N)C(=O)O)C(=O)O)cc1` showed an IC50 of 4.6 µM.
Still for that read-out and setting: the result for `N[C@@H](C[C@H](Cc1ccc2ccccc2c1)C(=O)O)C(=O)O` reads 3.33 µM; that for `N[C@@H](C[C@@H](Cc1ccc2ccccc2c1)C(=O)O)C(=O)O` (single isomer, unassigned), 8.82 µM; that for `N[C@@H](C[C@@H](Cc1ccc(C(F)(F)F)cc1)C(=O)O)C(=O)O` (single isomer, unassigned), greater than 100 µM.
As to `N[C@@H](C[C@H](CC1CCC(c2ccccc2)CC1)C(=O)O)C(=O)O` (some centres not stated), the IC50 in [1] amounted to 3.2 µM.

What is called IC50 is the concentration at which inhibition is half-maximal. Read a low IC50 as greater potency in that assay.
